Test results reported in PMC8597734 (Antimicrobial Agents and Chemotherapy, 2021).
≈ marks a conversion by molar mass, not a printed value.

How the values were obtained:
M. abscessus Bamboo = test: microbe, parasite or virus in culture; type: cell-based, Mycobacterium abscessus; conditions: Mycobacteroides abscessus, 72 h
[1] = test system: M. abscessus subsp. abscessus K21; test: M. abscessus mouse infection model; type: in vivo, Mycobacterium abscessus; conditions: NOD SCID mice, intranasal infection, 400 mg/kg oral once daily for 10 days; statistically significant
Description: In vivo efficacy determinations were carried out as described previously, using 8-week-old female NOD.CB17-Prkdc^scid/NCrCrl (NOD SCID) mice (Charles River Laboratories) and the M. abscessus subsp. abscessus K21 strain ([48]). Briefly, anesthetized animals were infected by intranasal delivery of ∼10^6 CFU of M. abscessus subsp. abscessus K21. Acute infection was achieved within 1 day. Drugs or the vehicle control was administered to NOD SCID mice once daily for 10 consecutive days by oral gavage, starting from 1 day postinfection. Clarithromycin was formulated in 0.4% methyl cellulose–sterile water and administered at a dose of 250 mg/kg. […] EC/11716 was formulated in 0.4% methyl cellulose–sterile water and administered at 400 mg/kg. All mice were euthanized 24 h after the last dose (11 days postinfection), and their lungs and spleen were aseptically removed prior to homogenization. The bacterial load in these organs was determined by plating serial dilutions of the organ homogenates onto Middlebrook 7H11 agar (BD Difco) supplemented with 0.2% (vol/vol) glycerol and 10% (vol/vol) OADC. The agar plates were incubated for 5 days at 37°C prior to counting of colonies. All studies were conducted in accordance with the GSK Policy on the Care, Welfare and Treatment of Laboratory Animals and were reviewed the Institutional Animal Care and Use Committee either at GSK or by the ethical review process at the institution where the work was performed. All experiments involving live animals were approved by the Institutional Animal Care and Use Committee of the Center for Discovery and Innovation, Hackensack Meridian Health.

SMILES: COc1cnc2ccc(=O)n(CCN3CCC(NCc4cnc(CO)c(Cl)c4)CC3)c2c1 [EC/11716]
- MIC (M. abscessus Bamboo): 2.5 µM (≈ 1.14 µg/mL)
- reduction in lung CFU [1]: 1 log
